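These data come from cells grown in 96-well plates and exposed to compound for 48 hours at five concentrations. TGI: concentration producing complete growth inhibition.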
Columns and labels:
Experiment in all cases: growth of human tumour cells (NCI), 48 h
NCI-H226 lung = test system: NCI-H226 lung
A549 NSCLC = test system: A549 NSCLC
PC-3 prostate = test system: PC-3 prostate
UO-31 renal = test system: UO-31 renal
UACC-257 melanoma = test system: UACC-257 melanoma
SF-295 CNS = test system: SF-295 CNS
CAKI-1 renal = test system: CAKI-1 renal
NCI-H522 lung = test system: NCI-H522 lung
RPMI-8226 leukemia = test system: RPMI-8226 leukemia
SN12C renal = test system: SN12C renal
SNB-75 CNS = test system: SNB-75 CNS
786-0 renal = test system: 786-0 renal
MALME-3M melanoma = test system: MALME-3M melanoma
M14 melanoma = test system: M14 melanoma
SK-OV-3 ovarian = test system: SK-OV-3 ovarian
SK-MEL-28 melanoma = test system: SK-MEL-28 melanoma
HCC-2998 colon = test system: HCC-2998 colon
TK-10 renal = test system: TK-10 renal
LOX IMVI melanoma = test system: LOX IMVI melanoma
SNB-19 CNS = test system: SNB-19 CNS

Work on `O=C(CCCN1CCC2(CC1)NC(=O)c1ccccc1O2)c1ccc(F)cc1` yielded a TGI (NCI-H226 lung) of over 100 µM, a TGI (A549 NSCLC) of over 100 µM and a TGI (PC-3 prostate) of over 100 µM. The TGI (UO-31 renal) was over 100 µM, the TGI (UACC-257 melanoma) was over 100 µM and the TGI (SF-295 CNS) was over 100 µM. The TGI (CAKI-1 renal) was over 100 µM, the TGI (NCI-H522 lung) was over 100 µM and the TGI (RPMI-8226 leukemia) was over 100 µM. For the same molecule, the TGI (SN12C renal) was over 100 µM, the TGI (SNB-75 CNS) was over 100 µM and the TGI (786-0 renal) was over 100 µM. The TGI (MALME-3M melanoma) was over 100 µM, the TGI (M14 melanoma) was over 100 µM and the TGI (SK-OV-3 ovarian) was over 100 µM. It also gave a TGI (SK-MEL-28 melanoma) of over 100 µM, a TGI (HCC-2998 colon) of over 100 µM and a TGI (TK-10 renal) of over 100 µM. The TGI (LOX IMVI melanoma) was over 100 µM.
With `Cc1ccc(/C(=C\C(=O)C(=O)NC23CC4CC(CC(C4)C2)C3)Sc2ccccc2)cc1` the TGI (NCI-H226 lung) was over 10 µM, the TGI (PC-3 prostate) was over 10 µM and the TGI (UO-31 renal) was over 10 µM. It also gave a TGI (UACC-257 melanoma) of over 10 µM, a TGI (SF-295 CNS) of over 10 µM and a TGI (CAKI-1 renal) of over 10 µM. The TGI (NCI-H522 lung) was over 10 µM, the TGI (RPMI-8226 leukemia) was over 10 µM and the TGI (SN12C renal) was over 10 µM. The TGI (SNB-75 CNS) was over 10 µM, the TGI (786-0 renal) was over 10 µM and the TGI (MALME-3M melanoma) was over 10 µM. The TGI (M14 melanoma) was over 10 µM, the TGI (SK-OV-3 ovarian) was over 10 µM and the TGI (SK-MEL-28 melanoma) was over 10 µM. For the same molecule, the TGI (HCC-2998 colon) was over 10 µM, the TGI (TK-10 renal) was over 10 µM and the TGI (LOX IMVI melanoma) was over 10 µM.
Molecule `O=c1oc2ccccc2c(O)c1C1c2c(c3ccccc3oc2=O)Oc2c1c(=O)oc1ccccc21` has a TGI (NCI-H226 lung) of 64 µM, a TGI (SNB-19 CNS) of over 100 µM and a TGI (PC-3 prostate) of over 100 µM. For the same molecule, the TGI (UO-31 renal) was 35.6 µM, the TGI (UACC-257 melanoma) was over 100 µM and the TGI (CAKI-1 renal) was 69.3 µM. The TGI (NCI-H522 lung) was over 100 µM, the TGI (RPMI-8226 leukemia) was 87.9 µM and the TGI (SN12C renal) was 73.3 µM. It also gave a TGI (SNB-75 CNS) of over 100 µM, a TGI (786-0 renal) of over 100 µM and a TGI (MALME-3M melanoma) of over 100 µM. The TGI (SK-MEL-28 melanoma) was 97.8 µM, the TGI (HCC-2998 colon) was 41.1 µM and the TGI (TK-10 renal) was over 100 µM. It also gave a TGI (LOX IMVI melanoma) of over 100 µM.
Work on `COc1cc(/C=C/C(=O)OCCc2ccccc2)ccc1O` yielded a TGI (SNB-19 CNS) of 33.9 µM, a TGI (A549 NSCLC) of 38.9 µM and a TGI (PC-3 prostate) of 28 µM. For the same molecule, the TGI (UO-31 renal) was 27.3 µM, the TGI (UACC-257 melanoma) was 32.4 µM and the TGI (SF-295 CNS) was 35.3 µM. The TGI (CAKI-1 renal) was 29.7 µM, the TGI (NCI-H522 lung) was 22.1 µM and the TGI (RPMI-8226 leukemia) was 65.9 µM. The TGI (SN12C renal) was 36.7 µM, the TGI (SNB-75 CNS) was 30.2 µM and the TGI (786-0 renal) was 30.4 µM. For the same molecule, the TGI (MALME-3M melanoma) was 31.7 µM, the TGI (M14 melanoma) was 29 µM and the TGI (SK-OV-3 ovarian) was 29.7 µM. It also gave a TGI (SK-MEL-28 melanoma) of 26.9 µM, a TGI (HCC-2998 colon) of 41.3 µM and a TGI (TK-10 renal) of 28.3 µM. For the same molecule, the TGI (LOX IMVI melanoma) was 36.1 µM.
`Cc1nn(C(=O)c2ccc(Cl)cc2)c2c1C(c1cccc([N+](=O)[O-])c1)SC(N)=N2` (configuration not stated) was tested, and the TGI (NCI-H226 lung) was over 10 µM, the TGI (SNB-19 CNS) was over 10 µM and the TGI (A549 NSCLC) was over 10 µM. It also gave a TGI (PC-3 prostate) of over 10 µM, a TGI (UACC-257 melanoma) of over 10 µM and a TGI (SF-295 CNS) of over 10 µM. It also gave a TGI (CAKI-1 renal) of over 10 µM, a TGI (NCI-H522 lung) of over 10 µM and a TGI (RPMI-8226 leukemia) of over 10 µM. The TGI (SN12C renal) was over 10 µM, the TGI (SNB-75 CNS) was over 10 µM and the TGI (786-0 renal) was over 10 µM. The TGI (MALME-3M melanoma) was over 10 µM, the TGI (M14 melanoma) was over 10 µM and the TGI (SK-OV-3 ovarian) was over 10 µM. The TGI (SK-MEL-28 melanoma) was over 10 µM, the TGI (HCC-2998 colon) was over 10 µM and the TGI (TK-10 renal) was over 10 µM. For the same molecule, the TGI (LOX IMVI melanoma) was over 10 µM.
Work on `CC(=O)OC[C@@H]1[C@H]2CC[C@]3(C)[C@@H](OC(C)=O)CC[C@H]3[C@@H]2CC[C@H]1C1(C)SCCS1` yielded a TGI (NCI-H226 lung) of over 25 µM, a TGI (SNB-19 CNS) of over 25 µM and a TGI (A549 NSCLC) of over 25 µM. It also gave a TGI (PC-3 prostate) of over 25 µM, a TGI (UO-31 renal) of over 25 µM and a TGI (UACC-257 melanoma) of over 25 µM. For the same molecule, the TGI (SF-295 CNS) was over 25 µM, the TGI (CAKI-1 renal) was over 25 µM and the TGI (NCI-H522 lung) was over 25 µM. For the same molecule, the TGI (RPMI-8226 leukemia) was over 25 µM, the TGI (SN12C renal) was over 25 µM and the TGI (SNB-75 CNS) was over 25 µM. For the same molecule, the TGI (786-0 renal) was over 25 µM, the TGI (MALME-3M melanoma) was over 25 µM and the TGI (M14 melanoma) was over 25 µM. It also gave a TGI (SK-MEL-28 melanoma) of over 25 µM, a TGI (HCC-2998 colon) of over 25 µM and a TGI (TK-10 renal) of over 25 µM. It also gave a TGI (LOX IMVI melanoma) of over 25 µM.
Work on `C1=Nc2sc3c(c2C2=NCCN12)CCCC3` yielded a TGI (NCI-H226 lung) of 33.2 µM, a TGI (SNB-19 CNS) of 34.9 µM and a TGI (PC-3 prostate) of 30.7 µM. The TGI (UO-31 renal) was 30.1 µM, the TGI (UACC-257 melanoma) was 30 µM and the TGI (SF-295 CNS) was 39.6 µM. For the same molecule, the TGI (CAKI-1 renal) was 31.1 µM, the TGI (NCI-H522 lung) was 30.9 µM and the TGI (RPMI-8226 leukemia) was 43.3 µM. For the same molecule, the TGI (SNB-75 CNS) was 34.9 µM, the TGI (786-0 renal) was 34.1 µM and the TGI (MALME-3M melanoma) was 32.9 µM. It also gave a TGI (SK-MEL-28 melanoma) of 41 µM, a TGI (HCC-2998 colon) of 24.3 µM and a TGI (TK-10 renal) of 30.7 µM. For the same molecule, the TGI (LOX IMVI melanoma) was 28.2 µM.
With `Fc1ccc(OCc2nc3cc(C(F)(F)F)ccc3nc2-c2ccccc2)cc1` the TGI (NCI-H226 lung) was over 100 µM, the TGI (SNB-19 CNS) was over 100 µM and the TGI (A549 NSCLC) was over 100 µM. The TGI (PC-3 prostate) was over 100 µM, the TGI (UO-31 renal) was over 100 µM and the TGI (UACC-257 melanoma) was over 100 µM. For the same molecule, the TGI (SF-295 CNS) was over 100 µM, the TGI (CAKI-1 renal) was over 100 µM and the TGI (NCI-H522 lung) was over 100 µM. For the same molecule, the TGI (RPMI-8226 leukemia) was over 100 µM, the TGI (SN12C renal) was over 100 µM and the TGI (SNB-75 CNS) was over 100 µM. It also gave a TGI (786-0 renal) of over 100 µM, a TGI (MALME-3M melanoma) of over 100 µM and a TGI (M14 melanoma) of over 100 µM. For the same molecule, the TGI (SK-MEL-28 melanoma) was over 100 µM, the TGI (HCC-2998 colon) was over 100 µM and the TGI (TK-10 renal) was over 100 µM. For the same molecule, the TGI (LOX IMVI melanoma) was over 100 µM.
`O=c1[nH]c(=O)n(C2OC(CO)C(O)C2O)c2ccsc12` (configuration not stated) gave a TGI (NCI-H226 lung) of over 100 µM, a TGI (A549 NSCLC) of over 100 µM and a TGI (PC-3 prostate) of over 100 µM. It also gave a TGI (UO-31 renal) of over 100 µM, a TGI (UACC-257 melanoma) of over 100 µM and a TGI (SF-295 CNS) of over 100 µM. For the same molecule, the TGI (CAKI-1 renal) was over 100 µM, the TGI (NCI-H522 lung) was over 100 µM and the TGI (RPMI-8226 leukemia) was over 100 µM. It also gave a TGI (SN12C renal) of over 100 µM, a TGI (SNB-75 CNS) of over 100 µM and a TGI (786-0 renal) of over 100 µM. The TGI (MALME-3M melanoma) was over 100 µM, the TGI (M14 melanoma) was over 100 µM and the TGI (SK-MEL-28 melanoma) was over 100 µM. The TGI (HCC-2998 colon) was over 100 µM, the TGI (TK-10 renal) was over 100 µM and the TGI (LOX IMVI melanoma) was over 100 µM.
Molecule `ClCCN1CCOC1=Nc1ccc2c(c1)CCCC2` has a TGI (NCI-H226 lung) of 30.9 µM, a TGI (SNB-19 CNS) of 17.8 µM and a TGI (A549 NSCLC) of 57.5 µM. For the same molecule, the TGI (PC-3 prostate) was 23 µM, the TGI (UO-31 renal) was 30.3 µM and the TGI (UACC-257 melanoma) was 13.2 µM. For the same molecule, the TGI (SF-295 CNS) was 31.9 µM, the TGI (CAKI-1 renal) was 53.8 µM and the TGI (NCI-H522 lung) was 54.9 µM. The TGI (RPMI-8226 leukemia) was 26.2 µM, the TGI (SN12C renal) was 27 µM and the TGI (SNB-75 CNS) was 28.7 µM. It also gave a TGI (786-0 renal) of 35.3 µM, a TGI (MALME-3M melanoma) of 20.8 µM and a TGI (M14 melanoma) of 33 µM. It also gave a TGI (SK-OV-3 ovarian) of 74.9 µM, a TGI (SK-MEL-28 melanoma) of 39.1 µM and a TGI (HCC-2998 colon) of 30.1 µM. For the same molecule, the TGI (LOX IMVI melanoma) was 32.3 µM.

From PubChem BioAssay (NCI)
